These are literature values, as cited in US5594133A, “Crystalline acid addition salts of diastereomerically pure 1-(2,2-dimethylpropinonyloxy)-ethyl-3-cephem-4-carboxylate” (Hoechst Aktiengesellschaft, priority 1991, dated 1997).

SMILES strings stand for the structures.

The conditions of data set [1]: T. Nishimura et al., J. Antibiotics XL (1987) 81-90.
The conditions of data set [2]: EP-A-0 329 008.

Regarding `CC(OC(=O)OC1CCCCC1)OC(=O)C1=C(CSc2nnnn2CCN(C)C)CS[C@@H]2[C@H](NC(=O)Cc3csc(N)n3)C(=O)N12` (stereo partly drawn) [cefotiam-hexetil], the “influence of the stereochemistry in the 1-position of the ethyl ester group on enteral absorbability” value in data set [1] is recorded as “no influence on enteral absorbability”. As for `COCC1=C(C(=O)OC(C)OC(=O)C(C)(C)C)N2C(=O)C(NC(=O)/C(=N\O)c3csc(N)n3)[C@H]2SC1` (stereo partly drawn) [ester of the formula I, 1-(2,2-dimethylpropionyloxy)-ethyl 7-[2-(2-aminothiazol-4-yl)-2-(Z)-hydroxyimino-acetamido]-3-methoxymethyl-3-cephem-4-carboxylate], the “splitting by endogenous enzymes into the cephalosporin containing the free carboxyl group” value in data set [2] (after absorption) is “split again rapidly and completely”. Also, the enteral absorption entry in data set [2] (various animal species) is “absorbed well enterally”.
